Consider 1 compound from US10227351B2, “Salt and polymorphic forms of (3R,4S)-L-((4-amino-5H-pyrrolo[3,2,-D]pyrimidin-7-yl)methyl)-4(methylthiomethyl)pyrodin-3-ol(MTDIA)” (VICTORIA LINK LIMITED, priority 2012, dated 2019).

A short description of this data set: Stated properties of the phosphate salt form (no method described). The format is physicochemical. To be noted: comparator not stated in that sentence, no data given.

SMILES strings stand for the structures.

Regarding `CSC[C@H]1CN(Cc2c[nH]c3c(N)ncnc23)C[C@@H]1O` [(3R,4S)-1-((4-amino-5H-pyrrolo[3,2-d]pyrimidin-7-yl)methyl)-4-(methylthiomethyl)pyrrolidin-3-ol phosphate], the solubility result is given as “improved” and the stability entry was “improved”.
